Results published in US9492471B2, “Methods of treating a disease or disorder associated with Bruton'S Tyrosine Kinase” (Celgene Avilomics Research, Inc., priority 2013, dated 2016).
Like-named read-outs stand apart in the source and are kept apart here.

Experiments:
Experiment in all cases: HotSpot kinase profiling
Type in all cases: biochemical
IRAK4 = molecular target: T1, IRAK4 (Homo sapiens, UniProt Q9NWZ3)
T1 construct: purchased Reaction Biology Corp
T1 sequence (Q9NWZ3 1-460): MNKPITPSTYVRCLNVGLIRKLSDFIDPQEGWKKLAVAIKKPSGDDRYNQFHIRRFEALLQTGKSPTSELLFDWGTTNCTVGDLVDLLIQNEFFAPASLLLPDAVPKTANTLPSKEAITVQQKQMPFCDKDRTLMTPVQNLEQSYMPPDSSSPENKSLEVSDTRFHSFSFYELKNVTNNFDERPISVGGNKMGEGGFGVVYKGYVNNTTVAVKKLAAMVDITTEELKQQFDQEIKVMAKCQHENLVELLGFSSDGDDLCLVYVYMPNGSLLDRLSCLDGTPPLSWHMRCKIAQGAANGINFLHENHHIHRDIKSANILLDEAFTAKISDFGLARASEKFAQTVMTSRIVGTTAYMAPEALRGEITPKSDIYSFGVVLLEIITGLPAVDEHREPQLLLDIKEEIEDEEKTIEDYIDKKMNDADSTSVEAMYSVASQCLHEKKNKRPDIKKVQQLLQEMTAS
Outline: (§1)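 Radio-isotope P81 filtration format. Substrate + required cofactors in reaction buffer, kinase added, 2 h RT. Stop, wash with 0.1% phosphoric acid, detect. % inhibition vs DMSO; mean of duplicates where repeated.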

BRSK1 = molecular target: T2, BRSK1 (Homo sapiens, UniProt Q8TDC3)
T2 construct: purchased Reaction Biology Corp
T2 sequence (Q8TDC3 1-778): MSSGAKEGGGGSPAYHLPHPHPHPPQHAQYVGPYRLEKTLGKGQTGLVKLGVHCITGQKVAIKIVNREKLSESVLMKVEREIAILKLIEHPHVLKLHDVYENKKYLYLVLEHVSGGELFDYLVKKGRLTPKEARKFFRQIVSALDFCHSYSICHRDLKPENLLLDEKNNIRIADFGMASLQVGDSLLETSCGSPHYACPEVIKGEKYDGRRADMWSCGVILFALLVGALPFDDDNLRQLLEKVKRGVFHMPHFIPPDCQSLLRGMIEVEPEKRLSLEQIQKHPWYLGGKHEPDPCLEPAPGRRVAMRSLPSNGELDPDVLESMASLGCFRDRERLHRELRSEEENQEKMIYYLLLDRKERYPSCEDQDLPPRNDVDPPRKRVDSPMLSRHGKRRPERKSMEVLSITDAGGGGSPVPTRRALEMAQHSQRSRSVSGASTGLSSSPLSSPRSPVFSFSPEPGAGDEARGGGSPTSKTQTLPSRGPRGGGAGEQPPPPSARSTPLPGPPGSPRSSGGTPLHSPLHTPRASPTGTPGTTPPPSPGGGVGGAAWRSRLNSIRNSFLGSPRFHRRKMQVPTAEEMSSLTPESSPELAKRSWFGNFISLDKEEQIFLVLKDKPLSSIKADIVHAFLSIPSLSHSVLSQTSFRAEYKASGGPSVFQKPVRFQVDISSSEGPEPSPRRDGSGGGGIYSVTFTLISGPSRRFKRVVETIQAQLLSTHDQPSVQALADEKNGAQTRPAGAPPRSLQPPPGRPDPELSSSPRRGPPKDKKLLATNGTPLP
Outline: as §1

CDK2/cyclin E = molecular target: T3, CDK2/cyclin E (Homo sapiens, UniProt P24941)
T3 construct: purchased Reaction Biology Corp
Outline: as §1

AKT1 = molecular target: T4, AKT1 (Homo sapiens, UniProt P31749)
T4 construct: purchased Reaction Biology Corp
Outline: as §1

DCAMKL1 = molecular target: T5, DCAMKL1 (Homo sapiens, UniProt O15075)
T5 construct: purchased Reaction Biology Corp
T5 sequence (O15075 1-740): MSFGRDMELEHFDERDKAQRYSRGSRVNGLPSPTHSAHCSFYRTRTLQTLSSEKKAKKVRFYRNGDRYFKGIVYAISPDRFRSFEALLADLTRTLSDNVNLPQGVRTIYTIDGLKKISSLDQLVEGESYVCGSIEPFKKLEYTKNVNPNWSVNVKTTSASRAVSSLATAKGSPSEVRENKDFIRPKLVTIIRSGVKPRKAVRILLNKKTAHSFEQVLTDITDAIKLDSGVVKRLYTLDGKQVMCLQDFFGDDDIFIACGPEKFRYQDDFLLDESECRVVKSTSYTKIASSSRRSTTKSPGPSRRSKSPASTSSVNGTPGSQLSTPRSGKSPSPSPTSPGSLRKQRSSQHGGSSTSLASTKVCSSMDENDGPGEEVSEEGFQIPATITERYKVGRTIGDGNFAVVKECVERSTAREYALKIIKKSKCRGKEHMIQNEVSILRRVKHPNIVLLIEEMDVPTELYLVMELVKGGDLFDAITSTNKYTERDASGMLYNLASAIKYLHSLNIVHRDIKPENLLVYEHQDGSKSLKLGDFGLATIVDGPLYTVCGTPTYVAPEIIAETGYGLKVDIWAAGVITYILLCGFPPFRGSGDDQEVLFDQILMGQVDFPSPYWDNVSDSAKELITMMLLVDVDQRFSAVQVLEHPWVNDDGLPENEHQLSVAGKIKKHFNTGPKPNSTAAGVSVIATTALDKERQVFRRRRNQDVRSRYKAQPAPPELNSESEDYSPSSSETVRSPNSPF
Outline: as §1

FRK/PTK5 = molecular target: T6, FRK/PTK5 (Homo sapiens, UniProt P42685)
T6 construct: purchased Reaction Biology Corp
Outline: as §1

[1] = read-out: % Enzyme Activity (relative to DMSO controls) Run 1
[2] = read-out: % Enzyme Activity (relative to DMSO controls) Run 2

T4 sequence (P31749 whole entry): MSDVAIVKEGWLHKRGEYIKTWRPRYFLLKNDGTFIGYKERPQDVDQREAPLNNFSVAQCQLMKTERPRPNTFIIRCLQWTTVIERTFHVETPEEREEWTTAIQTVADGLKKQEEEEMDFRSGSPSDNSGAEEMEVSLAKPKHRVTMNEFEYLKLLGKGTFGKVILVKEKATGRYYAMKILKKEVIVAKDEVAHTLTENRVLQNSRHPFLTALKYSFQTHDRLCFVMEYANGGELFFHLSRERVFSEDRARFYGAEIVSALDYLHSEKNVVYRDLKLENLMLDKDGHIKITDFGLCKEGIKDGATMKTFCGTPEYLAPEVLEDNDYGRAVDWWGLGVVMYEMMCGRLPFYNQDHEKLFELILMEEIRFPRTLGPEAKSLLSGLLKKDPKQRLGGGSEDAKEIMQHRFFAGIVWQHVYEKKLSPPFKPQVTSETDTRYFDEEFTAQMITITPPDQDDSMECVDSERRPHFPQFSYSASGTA
T6 sequence (P42685 whole entry): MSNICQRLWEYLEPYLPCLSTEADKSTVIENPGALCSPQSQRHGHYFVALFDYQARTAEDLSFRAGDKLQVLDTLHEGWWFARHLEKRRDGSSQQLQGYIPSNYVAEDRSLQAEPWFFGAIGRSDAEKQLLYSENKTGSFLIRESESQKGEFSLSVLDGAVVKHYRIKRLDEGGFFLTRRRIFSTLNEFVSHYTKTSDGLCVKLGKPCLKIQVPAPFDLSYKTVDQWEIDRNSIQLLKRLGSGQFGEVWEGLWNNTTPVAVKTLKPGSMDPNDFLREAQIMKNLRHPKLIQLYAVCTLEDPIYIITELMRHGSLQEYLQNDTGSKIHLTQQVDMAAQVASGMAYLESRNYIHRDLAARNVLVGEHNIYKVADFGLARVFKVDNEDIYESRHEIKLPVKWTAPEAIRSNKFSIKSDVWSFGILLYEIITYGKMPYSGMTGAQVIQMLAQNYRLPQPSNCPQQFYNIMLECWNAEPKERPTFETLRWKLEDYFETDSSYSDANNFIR

For `C=CC(=O)Nc1cccc(Nc2nc(Nc3ccc(OCCOC)c(F)c3)ncc2F)c1` [Compound 2], the inhibition at 3 µM (IRAK4) was 12.4%, the remaining activity at 3 µM (IRAK4; [1]) was 88.6% and the remaining activity at 3 µM (IRAK4; [2]) was 86.5%. The inhibition at 3 µM (BRSK1) was 11.8%, the remaining activity at 3 µM (BRSK1; [1]) was 87.1% and the remaining activity at 3 µM (BRSK1; [2]) was 89.4%. For the same compound, the inhibition at 3 µM (CDK2/cyclin E) was 10%, the remaining activity at 3 µM (CDK2/cyclin E; [1]) was 87.9% and the remaining activity at 3 µM (CDK2/cyclin E; [2]) was 92%. It also gave an inhibition at 3 µM (AKT1) of 5.87%, a remaining activity at 3 µM (AKT1; [1]) of 95.1% and a remaining activity at 3 µM (AKT1; [2]) of 93.1%. It also gave an inhibition at 3 µM (DCAMKL1) of 2.02%, a remaining activity at 3 µM (DCAMKL1; [1]) of 98.4% and a remaining activity at 3 µM (DCAMKL1; [2]) of 97.5%. It also gave an inhibition at 3 µM (FRK/PTK5) of 0.75%, a remaining activity at 3 µM (FRK/PTK5; [1]) of 101% and a remaining activity at 3 µM (FRK/PTK5; [2]) of 98%.
